Results as given in publication PMC11099041, “Tissue distribution and retention drives efficacy of rapidly clearing VHL-based PROTACs” (Communications Medicine, 2024).
Where “and” joins values, the source holds several entries; their conditions need not be identical. Equal entries are not always repeated. Where two headings read alike, the source gives them in different places.

Assay: Mouse pharmacokinetics in CD-1 mice (blood, kidney, liver, lung)
Type: in vivo
Procedure: For the PK study, a total of 42 male CD-1 mice weighing ~20-35 g were acquired from Lingchang/Vital River Laboratory Animal Co., Ltd. (Shanghai/Beijing, P.R. China) and divided into 2 treatment groups. […] was dosed with one low dose (1 mg/kg) and one high dose group (20 mg/kg). For the low-dose groups, nine animals were required for organ quantification with termination at 24 hours. For the high-dose groups, 12 animals were required for organ quantification with termination at 48 hours. The animal was administered either 1 mg/kg or 20 mg/kg of formulation solution (10% HP-β-CD in acetate buffer at pH 4.0) by IV bolus through the left lateral tail vein injection. […] Blood samples were placed on wet ice, mixed, then frozen and stored in a freezer set to -60 °C or lower until analysis. After the blood samples were collected at the terminal time points, the animals were sacrificed, and the liver, lung and kidney were harvested. The tissues were rinsed in cold water and then blotted on filter papers, weighed and homogenized using pre-cooled water at the ratio of 1:4. The tissue homogenate samples were kept at -70 °C until analysis. […] Working standard solutions were spiked into 25 μL of blank matrix on the sample plate. […] The supernatant (20 μL) was transferred into the MS injection plate, then diluted with water before injection for LC-MS/MS analysis. The concentrations of […] were quantified by an LC-MS/MS method. The LC-MS/MS system was a Waters Acquity UPLC System (Milford, MA) coupled to a Sciex Triple Quad 6500 Plus mass spectrometer (AB Sciex, Foster City, CA). The aqueous mobile phase for the analysis was 0.1% formic acid and 2 mM ammonium formate in water/ACN (v:v, 95:5) (A), and the organic mobile phase was 0.1% formic acid and 2 mM ammonium formate in ACN/water (v:v, 95:5) (B). […] Column temperature was set at 50 °C. […] The flow rate was set at 0.7 mL/min. […] The lower limit of quantitation in all matrices was 5.1 ng/mL. The mean time concentration profile was generated for each group, and an overall AUC was then calculated with these sparse samples of rats and mice. […] The following parameters were estimated whenever possible: C0, Back-extrapolated concentration at time 0; Cmax, Maximum observed concentration; Tmax, Time of maximum observed concentration; AUC0-t, Area under the concentration-time curve from hour 0 to the last measurable concentration, estimated by the linear trapezoidal rule; AUC0-336, Area under the concentration-time curve from hour 0 to hour 336, estimated by the linear trapezoidal rule; DN AUC0-336, Dose normalized AUC0-336, calculated as AUC0-336/dose level; […] AUC0-∞ = AUC0-t + Ct/λz, where Ct is the last measurable concentration and λz is the elimination rate constant; t1/2, Elimination half-life, determined by ln(2)/λz; CL, Clearance, calculated as dose/AUC0-inf; Vd, Volume of distribution based on the terminal phase, calculated as: dose/(λz × AUC0-∞) Nominal doses and sampling times were used. […] Embedded zeros were excluded from kinetic analysis.

For `Cc1ncsc1-c1ccc(C(C)NC(=O)C2CC(O)CN2C(=O)C(c2cc(N3CCC(CN4CCC(OC5CC(Oc6cc(N7C8CCC7CN(c7cc(-c9ccccc9O)nnc7N)C8)ccn6)C5)CC4)CC3)no2)C(C)C)cc1` (stereo not shown) [A947], the concentration at 0.083 h (Blood, 0.083 h, 1 mg/kg IV, individual animals, read-out: Concentration (µM) from 1 mg/kg Dosing Blood) was 0.351 µM and 0.406 µM, the concentration at 8 h (Blood, 0.083 h, 20 mg/kg IV, individual animals, read-out: Concentration (µM) from 20 mg/kg Dosing Blood) was 11.332 µM and 8.845 µM and the concentration at 0.083 h (Blood, 0.25 h, 1 mg/kg IV, individual animals, read-out: Concentration (µM) from 1 mg/kg Dosing Blood) was 0.084 µM and 0.113 µM. The concentration at 8 h (Blood, 0.25 h, 20 mg/kg IV, individual animals, read-out: Concentration (µM) from 20 mg/kg Dosing Blood) was 3.265 µM and 3.4 µM, the concentration at 0.083 h (Blood, 0.5 h, 1 mg/kg IV, individual animals, read-out: Concentration (µM) from 1 mg/kg Dosing Blood) was 0.044 µM and 0.066 µM and the concentration at 8 h (Blood, 0.5 h, 20 mg/kg IV, individual animals, read-out: Concentration (µM) from 20 mg/kg Dosing Blood) was 1.604 µM and 1.652 µM. For the same compound, the concentration at 0.083 h (Blood, 1 h, 1 mg/kg IV, individual animals, read-out: Concentration (µM) from 1 mg/kg Dosing Blood) was 0.02 µM and 0.026 µM, the concentration at 8 h (Blood, 1 h, 20 mg/kg IV, individual animals, read-out: Concentration (µM) from 20 mg/kg Dosing Blood) was 0.769 µM and 0.821 µM and the concentration at 0.083 h (Blood, 2 h, 1 mg/kg IV, individual animals, read-out: Concentration (µM) from 1 mg/kg Dosing Blood) was 0.009 µM and 0.013 µM. For the same compound, the concentration at 8 h (Blood, 2 h, 20 mg/kg IV, individual animals, read-out: Concentration (µM) from 20 mg/kg Dosing Blood) was 0.221 µM and 0.24 µM, the “Concentration (µM) from 1 mg/kg Dosing Blood” value (Blood, 4 h, 1 mg/kg IV, individual animals, BLOQ <5.1 ng/mL) was “BLOQ *” and the concentration at 0.083 h (Blood, 4 h, 1 mg/kg IV, individual animals, BLOQ <5.1 ng/mL, read-out: Concentration (µM) from 1 mg/kg Dosing Blood) was 0.006 µM. For the same compound, the concentration at 8 h (Blood, 4 h, 20 mg/kg IV, individual animals, read-out: Concentration (µM) from 20 mg/kg Dosing Blood) was 0.212 µM and 0.306 µM and 0.093 µM and 0.117 µM and 0.098 µM and 0.1 µM, the “Concentration (µM) from 1 mg/kg Dosing Blood” value (Blood, 8 h, 1 mg/kg IV, individual animals, BLOQ <5.1 ng/mL) was “BLOQ *” and the concentration at 8 h (Blood, 8 h, 20 mg/kg IV, individual animals, read-out: Concentration (µM) from 20 mg/kg Dosing Blood) was 0.067 µM and 0.056 µM and 0.036 µM and 0.037 µM. For the same compound, the “Concentration (µM) from 1 mg/kg Dosing Blood” value (Blood, 12 h, 1 mg/kg IV, individual animals, BLOQ <5.1 ng/mL) was “BLOQ *”, the concentration at 8 h (Blood, 12 h, 20 mg/kg IV, individual animals, read-out: Concentration (µM) from 20 mg/kg Dosing Blood) was 0.015 µM and 0.017 µM and the “Concentration (µM) from 1 mg/kg Dosing Blood” value (Blood, 24 h, 1 mg/kg IV, individual animals, BLOQ <5.1 ng/mL) was “BLOQ *”. For the same compound, the “Concentration (µM) from 20 mg/kg Dosing Blood” value (Blood, 24 h, 20 mg/kg IV, individual animals, BLOQ <5.1 ng/mL) was “BLOQ *”, the “Concentration (µM) from 20 mg/kg Dosing Blood” value (Blood, 48 h, 20 mg/kg IV, individual animals, BLOQ <5.1 ng/mL) was “BLOQ *” and the concentration at 24 h (Kidney, 4 h, 1 mg/kg IV, individual animals, read-out: Concentration (µM) from 1 mg/kg Dosing Kidney) was 0.541 µM and 0.391 µM. For the same compound, the concentration at 8 h (Kidney, 4 h, 20 mg/kg IV, individual animals, read-out: Concentration (µM) from 20 mg/kg Dosing Kidney) was 14.213 µM and 10.852 µM, the concentration at 24 h (Kidney, 8 h, 1 mg/kg IV, individual animals, read-out: Concentration (µM) from 1 mg/kg Dosing Kidney) was 0.341 µM and 0.338 µM and the concentration at 8 h (Kidney, 8 h, 20 mg/kg IV, individual animals, read-out: Concentration (µM) from 20 mg/kg Dosing Kidney) was 11.428 µM and 7.712 µM. For the same compound, the concentration at 24 h (Kidney, 24 h, 1 mg/kg IV, individual animals, read-out: Concentration (µM) from 1 mg/kg Dosing Kidney) was 0.025 µM and 0.027 µM, the concentration at 8 h (Kidney, 24 h, 20 mg/kg IV, individual animals, read-out: Concentration (µM) from 20 mg/kg Dosing Kidney) was 0.295 µM and 0.508 µM and the concentration at 8 h (Kidney, 48 h, 20 mg/kg IV, individual animals, read-out: Concentration (µM) from 20 mg/kg Dosing Kidney) was 0.083 µM and 0.066 µM. The concentration at 24 h (Liver, 4 h, 1 mg/kg IV, individual animals, read-out: Concentration (µM) from 1 mg/kg Dosing Liver) was 0.069 µM and 0.098 µM, the concentration at 8 h (Liver, 4 h, 20 mg/kg IV, individual animals, read-out: Concentration (µM) from 20 mg/kg Dosing Liver) was 66.456 µM and 51.09 µM and 27.754 µM and the concentration at 24 h (Liver, 8 h, 1 mg/kg IV, individual animals, read-out: Concentration (µM) from 1 mg/kg Dosing Liver) was 0.039 µM. For the same compound, the concentration at 8 h (Liver, 8 h, 20 mg/kg IV, individual animals, read-out: Concentration (µM) from 20 mg/kg Dosing Liver) was 18.535 µM and 24.009 µM, the “Concentration (µM) from 1 mg/kg Dosing Liver” value (Liver, 24 h, 1 mg/kg IV, individual animals, BLOQ <5.1 ng/mL) was “BLOQ *” and the concentration at 8 h (Liver, 24 h, 20 mg/kg IV, individual animals, read-out: Concentration (µM) from 20 mg/kg Dosing Liver) was 8.297 µM and 9.7 µM. The concentration at 8 h (Liver, 48 h, 20 mg/kg IV, individual animals, read-out: Concentration (µM) from 20 mg/kg Dosing Liver) was 1.133 µM and 2.43 µM and 2.132 µM, the concentration at 24 h (Lung, 4 h, 1 mg/kg IV, individual animals, read-out: Concentration (µM) from 1 mg/kg Dosing Lung) was 0.085 µM and 0.099 µM and the concentration at 8 h (Lung, 4 h, 20 mg/kg IV, individual animals, read-out: Concentration (µM) from 20 mg/kg Dosing Lung) was 6.463 µM and 5.695 µM. The concentration at 24 h (Lung, 8 h, 1 mg/kg IV, individual animals, read-out: Concentration (µM) from 1 mg/kg Dosing Lung) was 0.066 µM and 0.071 µM, the concentration at 8 h (Lung, 8 h, 20 mg/kg IV, individual animals, read-out: Concentration (µM) from 20 mg/kg Dosing Lung) was 2.286 µM and 3.054 µM and the concentration at 24 h (Lung, 24 h, 1 mg/kg IV, individual animals, read-out: Concentration (µM) from 1 mg/kg Dosing Lung) was 0.011 µM and 0.016 µM. For the same compound, the concentration at 8 h (Lung, 24 h, 20 mg/kg IV, individual animals, read-out: Concentration (µM) from 20 mg/kg Dosing Lung) was 0.718 µM and 0.295 µM and 0.794 µM, the concentration at 8 h (Lung, 48 h, 20 mg/kg IV, individual animals, read-out: Concentration (µM) from 20 mg/kg Dosing Lung) was 0.36 µM and 0.211 µM and 1.402 µM and the half-life (male, CD-1, mouse, blood and tissues (kidney, liver, lung), iv, CD-1 mice IV, dose = c0, matrix = c1 of the line) was 10 to 15 h. It also gave a concentration at 0.25 h (male, CD-1, mouse, blood, intravenous, 1 mg/kg, Blood, 0.25 h, 1 mg/kg IV, individual animals, read-out: Concentration (µM) from 1 mg/kg Dosing Blood) of 0.089 µM, a concentration at 0.25 h (male, CD-1, mouse, blood, intravenous, 1 mg/kg, Blood, 0.25 h, 1 mg/kg IV, mean, read-out: Concentration (µM) from 1 mg/kg Dosing Blood) of 0.095 µM and a concentration at 0.5 h (male, CD-1, mouse, blood, intravenous, 1 mg/kg, Blood, 0.5 h, 1 mg/kg IV, individual animals, read-out: Concentration (µM) from 1 mg/kg Dosing Blood) of 0.055 µM. It also gave a concentration at 0.5 h (male, CD-1, mouse, blood, intravenous, 1 mg/kg, Blood, 0.5 h, 1 mg/kg IV, mean, read-out: Concentration (µM) from 1 mg/kg Dosing Blood) of 0.055 µM, a concentration at 1 h (male, CD-1, mouse, blood, intravenous, 1 mg/kg, Blood, 1 h, 1 mg/kg IV, individual animals, read-out: Concentration (µM) from 1 mg/kg Dosing Blood) of 0.027 µM and a concentration at 1 h (male, CD-1, mouse, blood, intravenous, 1 mg/kg, Blood, 1 h, 1 mg/kg IV, mean, read-out: Concentration (µM) from 1 mg/kg Dosing Blood) of 0.024 µM. For the same compound, the concentration at 2 h (male, CD-1, mouse, blood, intravenous, 1 mg/kg, Blood, 2 h, 1 mg/kg IV, individual animals, read-out: Concentration (µM) from 1 mg/kg Dosing Blood) was 0.012 µM, the concentration at 2 h (male, CD-1, mouse, blood, intravenous, 1 mg/kg, Blood, 2 h, 1 mg/kg IV, mean, read-out: Concentration (µM) from 1 mg/kg Dosing Blood) was 0.011 µM and the concentration at 12 h (male, CD-1, mouse, blood, intravenous, 20 mg/kg, Blood, 12 h, 20 mg/kg IV, individual animals, read-out: Concentration (µM) from 20 mg/kg Dosing Blood) was 0.019 µM. For the same compound, the concentration at 12 h (male, CD-1, mouse, blood, intravenous, 20 mg/kg, Blood, 12 h, 20 mg/kg IV, mean, read-out: Concentration (µM) from 20 mg/kg Dosing Blood) was 0.017 µM, the concentration at 24 h (male, CD-1, mouse, blood, intravenous, 20 mg/kg, Blood, 24 h, 20 mg/kg IV, individual animals, BLOQ <5.1 ng/mL, read-out: Concentration (µM) from 20 mg/kg Dosing Blood) was 0.007 µM and the concentration at 24 h (male, CD-1, mouse, blood, intravenous, 20 mg/kg, Blood, 24 h, 20 mg/kg IV, mean, read-out: Concentration (µM) from 20 mg/kg Dosing Blood) was 0.007 µM. It also gave a Vd (male, CD-1, mouse, blood, iv, CD-1 mice IV, dose = c0) of 20 to 23 L/kg, a concentration at 0.083 h (male, CD-1, mouse, in vivo, 1 mg/kg, Blood, 0.083 h, 1 mg/kg IV, individual animals, read-out: Concentration (µM) from 1 mg/kg Dosing Blood) of 0.338 µM and a concentration at 0.083 h (male, CD-1, mouse, in vivo, 1 mg/kg, Blood, 0.083 h, 1 mg/kg IV, mean, read-out: Concentration (µM) from 1 mg/kg Dosing Blood) of 0.365 µM. It also gave a concentration at 4 h (male, CD-1, mouse, in vivo, 1 mg/kg, Blood, 4 h, 1 mg/kg IV, individual animals, BLOQ <5.1 ng/mL, read-out: Concentration (µM) from 1 mg/kg Dosing Blood) of 0.005 µM.
